# Data as given in ChEMBL document CHEMBL1128984, “Synthesis and biological activity of novel tricyclic -lactams” (1996).
# Legend:
# Type in all cases: functional
# Clostridium perfringens = assay: In vitro antibacterial activity against Clostridium perfringens 615.
# Enterococcus faecalis = assay: In vitro antibacterial activity against […] faecalis 850E.
# Escherichia coli = assay: In vitro antibacterial activity against Escherichia coli 1850.
# Pseudomonas aeruginosa = assay: In vitro antibacterial activity against Pseudomonas aeruginosa 1911.
# Staphylococcus aureus [1] = assay: In vitro antibacterial activity against Staphylococcus aureus 663.
# Staphylococcus aureus [2] = assay: In vitro antibacterial activity against Staphylococcus aureus 853.
# Staphylococcus aureus [3] = assay: In vitro antibacterial activity against Staphylococcus aureus 1131.
Compound,MIC (Clostridium perfringens) [µg/mL],MIC (Enterococcus faecalis) [µg/mL],MIC (Escherichia coli) [µg/mL],MIC (Pseudomonas aeruginosa) [µg/mL],MIC (Staphylococcus aureus [1]) [µg/mL],MIC (Staphylococcus aureus [2]) [µg/mL],MIC (Staphylococcus aureus [3]) [µg/mL]
C[C@@H](O)[C@H]1C(=O)N2C(C(=O)[O-])=C3CCC[C@H]3[C@H]12.[Na+],1,16,2,> 32,1,0.5,8
CO[C@H]1CC[C@H]2C1=C(C(=O)[O-])N1C(=O)[C@H]([C@@H](C)O)[C@@H]21.[Na+],0.12,2,0.5,32,0.25,0.5,8
C[C@@H](O)[C@H]1C(=O)N2C(C(=O)O)=C(SCCNC=N)C[C@H]12.O [IMIPENEM],0.03,2,0.5,4,0.06,0.12,4
